Source: paper PMC6269309 (Haematologica, 2018)
Where two headings read alike, the source gives them in different places.

Assays:
Btk [1] = conditions: cited from earlier work
Btk pY551 = format: cell-based, human
Src pY418 = format: cell-based, human
[2] = tested on: platelet aggregation induced by ADP and PAR1 peptide; format: in vivo, human; conditions: patients taking either inhibitor, data not shown
[3] = cited from earlier work
Syk pY525/6 = format: cell-based, human
LAT pY200 = format: cell-based, human
[4] = tested on: PLCγ2 pY753, pY759, pY1217; assay: Protein phosphorylation, western blot of CRP-stimulated washed platelets: PLCγ2; format: cell-based, human
PLCγ2 pY1217 = assay: Ex vivo PLCγ2 pY1217 phosphorylation in washed platelets of treated patients; set-up: species or system human; conditions: CLL patients, ibrutinib 420 mg once daily or acalabrutinib 100 mg twice daily
Btk pY223 [5] = format: cell-based, human
[6] = tested on: GPVI-induced platelet aggregation; format: in vivo, human; conditions: CLL patients, ibrutinib 420 mg once daily or acalabrutinib 100 mg twice daily, PRP, 2-3 h after dose, CRP 10 μg/mL
[7] = tested on: GPVI-mediated platelet aggregation (washed platelets, CRP); assay: Light transmission aggregometry, washed platelets stimulated with CRP; format: cell-based, human
[8] = cited from earlier work; remark: listed apart in the source
SLP-76 pY145 = format: cell-based, human
Tec = Tec phosphorylation, immunoprecipitation and blotting with 4G10; format: cell-based, human; conditions: washed platelets 8x10^8/mL, CRP 10 μg/mL 180 s
Btk pY223 [9] = conditions: CLL patients, ibrutinib 420 mg once daily or acalabrutinib 100 mg twice daily
[10] = tested on: ATP secretion of washed platelets; assay: Granule release; format: cell-based, human
[11] = cited from earlier work; remark: listed apart in the source
Btk [12] = conditions: doses of 2.5 mg/kg; cited from earlier work
[13] = tested on: NFAT signaling in DT40 cells; format: cell-based, chicken; conditions: collagen 10 μg/mL, no serum
[14] = tested on: whole cell tyrosine phosphorylation; assay: Whole cell tyrosine phosphorylation in CRP-stimulated washed platelets; format: cell-based, human
[15] = tested on: Ca2+ mobilization in platelets; assay: Measurement of [Ca2+]i in Fura-2-loaded platelets stimulated with CRP; format: cell-based, human
[16] = higher concentrations, up to 200 μM

## CC#CC(=O)N1CCC[C@H]1c1nc(-c2ccc(C(=O)Nc3ccccn3)cc2)c2c(N)nccn12 [acalabrutinib]
Btk [1]
  IC50 for Btk relative to ibrutinib (lower): 5 fold
  Potency as an inhibitor of Btk relative to ibrutinib (lower): 5 fold
Btk pY551; [16]
  Phosphorylation of Btk Y551: small reduction
Src pY418; [16]
  Phosphorylation of Src Y418: had no effect
[2]
  Platelet aggregation induced by ADP and PAR1 peptide ex vivo: not altered
[3]
  Half-life: 1 h
[3]; patients
  Mean peak free drug concentration in patients: 1.3 µM
Syk pY525/6; [16]
  Phosphorylation of Syk Y525/6: had no effect
LAT pY200; [16]
  Phosphorylation of LAT Y200: had no effect
[4]; 2 μM, CRP 10 μg/mL
  Tyrosine phosphorylation of PLCγ2 on Y759 and Y1217: blocked
PLCγ2 pY1217
  Phosphorylation of PLCγ2 pY1217 ex vivo: complete inhibition
Btk pY223 [5]; 2 μM, CRP 10 μg/mL
  Tyrosine phosphorylation of Btk on Y223: blocked
[6]
  GPVI-induced platelet aggregation ex vivo: not blocked
[7]; 2 μM, CRP
  Onset of aggregation: slight delay in aggregation
  Overall magnitude of aggregation response: no effect
[8]
  Major hemorrhage in treated patients: not seen
SLP-76 pY145; [16]
  Phosphorylation of SLP-76 Y145: small reduction
Tec
  Concentration giving full blockade of Tec phosphorylation: 200 µM
  Concentration giving partial inhibition of Tec phosphorylation: approximately 1 μM
Btk pY223 [9]
  Autophosphorylation of Btk pY223 ex vivo: complete inhibition

## C=CC(=O)N1CCC[C@@H](n2nc(-c3ccc(Oc4ccccc4)cc3)c3c(N)ncnc32)C1 [ibrutinib]
Btk pY551; 70 nM, CRP 10 μg/mL
  Phosphorylation of Btk on Y551: not altered
Btk pY551; CRP 10 μg/mL
  Dose at which inhibition of Btk Y551 phosphorylation was seen: 7 µM
Src pY418; 70 nM, CRP 10 μg/mL
  Phosphorylation of Src Y418: not altered
Src pY418; two washing steps before CRP
  Reversibility of inhibition of Src pY418: reversible
[10]; 70 nM
  ATP secretion in response to a high concentration of CRP: no effect
[10]; 700 nM
  ATP secretion in response to a high concentration of CRP: blocked
[2]
  Platelet aggregation induced by ADP and PAR1 peptide ex vivo: not altered
[3]
  Initial half-life: 2 to 3 h
  Terminal half-life: 4 to 8 h
[11]
  Bound to plasma proteins: 97%
Btk [12]
  Btk occupancy: > 95%
Syk pY525/6; 70 nM, CRP 10 μg/mL
  Phosphorylation of Syk Y525/6: not altered
Syk pY525/6; CRP 10 μg/mL
  Dose at which inhibition of Syk Y525/6 phosphorylation was seen: 7 µM
[13]; high dose (range 0.5-10 μM)
  NFAT signaling, WT and KD Btk transfected cells: blocked NFAT signaling
[13]; low dose (range 0.5-10 μM)
  NFAT signaling, cells transfected with WT or KD Btk: had no effect
LAT pY200; 70 nM, CRP 10 μg/mL
  Phosphorylation of LAT Y200: not altered
LAT pY200; CRP 10 μg/mL
  Dose at which inhibition of LAT Y200 phosphorylation was seen: 7 µM
[14]; CRP 10 μg/mL
  Dose at which inhibition of whole cell phosphorylation was seen: 7 µM
[14]; two washing steps before CRP
  Reversibility of inhibition of global tyrosine phosphorylation: reversible on washout
[4]; 70 nM, CRP 10 μg/mL
  Phosphorylation of downstream PLCγ2: reduced to basal levels
[4]; two washing steps before CRP
  Reversibility of inhibition of PLCγ2 pY753 and pY1217: irreversible
PLCγ2 pY1217
  Phosphorylation of PLCγ2 pY1217 ex vivo: complete inhibition
Btk pY223 [5]; 70 nM, CRP 10 μg/mL
  Autophosphorylation of Btk: reduced to basal levels
Btk pY223 [5]; two washing steps before CRP
  Reversibility of inhibition of Btk pY223 autophosphorylation: irreversible
[6]
  GPVI-induced platelet aggregation ex vivo: blocked
[7]; 70 nM
  Response to a sub-maximal concentration of CRP: reduced response
[7]; 70 nM, incubation ≥5 min, CRP 10 μg/mL
  Aggregation in response to a high concentration of CRP: time-dependent delay in aggregation
[7]; 700 nM, incubation ≥30 s, CRP 10 μg/mL
  Aggregation in response to a high dose of CRP: block aggregation
SLP-76 pY145; 70 nM, CRP 10 μg/mL
  Phosphorylation of SLP-76 Y145: not altered
SLP-76 pY145; CRP 10 μg/mL
  Dose at which inhibition of SLP-76 Y145 phosphorylation was seen: 7 µM
Tec
  Concentration giving full blockade of Tec phosphorylation: 7 µM
  Concentration giving partial blockade of Tec phosphorylation: 170 nM
[15]; 70 nM
  Peak Ca2+ concentration after a high concentration of CRP: not altered
[15]; 700 nM
  Peak Ca2+ concentration after a high concentration of CRP: markedly reduced
